According to article PMC4102551, “Screening and Characterisation of Antimicrobial Properties of Semisynthetic Betulin Derivatives” (PLoS ONE, 2014):
Where “and” joins values, the source holds several entries; their conditions need not be identical. Equal entries are not always repeated.

Assays:
[1] = tested on: P. aeruginosa ATCC 27853; experiment: Broth microdilution assay, P. aeruginosa; assay type: cell-based, Pseudomonas aeruginosa; settings: 50 µM, 24 h, inhibition of growth, mean ± SD
Procedure: (§1) Clinically used antimicrobial agents were selected based on international guidelines for antimicrobial testing and were utilised as reference compounds in the antimicrobial assays. The compounds were purchased from Sigma, Fluka and ICN Biomedicals. Stock solutions of the reference compounds were prepared either in double distilled sterile MilliQ water or in DMSO. Water solutions were sterilised through a 0.22 µm filter (VWR International). […] During the primary screening, these reference compounds were used as positive controls at the determined MIC on every plate.
(§2) Gram-negative strains Escherichia coli (ATCC 25922), Enterobacter aerogenes (ATCC 13048) and Pseudomonas aeruginosa (ATCC 27853), Gram-positive strains Staphylococcus aureus (ATCC 25923) and Enterococcus faecalis (ATCC 29212), and fungal strain Candida albicans (ATCC 90028) were obtained from Microbiologics Inc., and used for the antimicrobial screening. Strains were selected according to the guidelines set for clinical laboratories by Clinical and Laboratory Standards Institute [CLSI, formerly National Committee on Clinical Laboratory Standards [22]] and the European Committee on Antimicrobial Susceptibility Testing (EUCAST). Bacterial strains were grown on Mueller Hinton II Agar (MHA) (BBL, BD) and Mueller Hinton II broth (MHB) (BBL, BD), whereas Candida was initiated on Sabouraud Dextrose Agar (SDA) (Difco, BD) plates. Media were prepared into MilliQ water according to manufacturer’s instruction and autoclaved at 121°C for 15 min. Bacteria were plated on MHA plates and incubated at 37°C for 16–18 h. Bacterial suspension for the assays was prepared by subculturing the bacteria into MHB and by incubating at 37°C for 16–20 h at 110 rpm prior to the assay. Candida strain was grown on SDA plates at 27°C for 16–18 h and suspended into sterile 0.9% saline for the assay.
(§3) Antimicrobial screening assays were performed by broth microdilution method following the guidelines of CLSI and EUCAST. Bacterial suspensions were prepared as mentioned earlier and diluted with MHB to obtain a final inoculum of 5×10^5 colony-forming units (cfu)/mL in the assay for all the bacteria (based on OD620 values previously calibrated against plate counts). Candida suspension was prepared into sterile 0.9% saline solution as stated earlier. […] Assays were carried out in clear 96-well microtitre plates and initiated by dispensing an equal volume of microbial suspension and sample solution diluted into the assay medium into the wells. The plates were incubated for 24 h at 37°C (for Candida the incubation was at 35°C for 48 h) with agitation. Absorbance was measured at 620 nm with Victor plate reader (Wallac 1420, Perkin Elmer) at 0, 4 and 24 h with the bacteria, and at 0, 24 and 48 h with Candida. The antimicrobial activity of the samples was calculated from the absorbance values by comparing to the controls, and expressed as a percentage inhibition of growth. All the betulin derivatives were first assayed at the single concentration of 50 µM (two separate experiments, each with three replicates). […] The MIC90 value was expressed as the lowest concentration of compound that inhibited the microbial growth by >90%. The MIC90 results are means of three replicates from two separate experiments.

[2] = tested on: E. coli ATCC 25922; experiment: Broth microdilution assay, E. coli; assay type: cell-based, Escherichia coli; settings: 50 µM, 24 h, inhibition of growth, mean ± SD
Procedure: as §1, §2, §3

[3] = tested on: E. faecalis ATCC 29212; experiment: Broth microdilution assay, E. faecalis; assay type: cell-based, Enterococcus faecalis; settings: 50 µM, 24 h, inhibition of growth, mean ± SD
Procedure: as §1, §2, §3

[4] = tested on: Huh-7 cells; experiment: in vitro; assay type: cell-based, human; settings: 50 µM, 24 h exposure, ATP content, 5% FBS
Procedure: Huh-7 cells (derived from human hepatocellular carcinoma) were obtained as a gift from Prof. Ralf Bartenschlager (University of Heidelberg, Germany) and used for assessing the cytotoxicity against mammalian cells. HL cells (a heteroploid cell line used for propagating respiratory viruses) were used as a host cell line in the host-pathogen co-culture assay. […] Both cell lines were cultured at 37°C, 5% CO2 and 95% humidity.
The effect of the betulin derivatives on metabolic activity of Huh-7 cells was evaluated by measuring the intracellular ATP content of the cells after 24 h exposure to the compounds. In brief, cells were seeded at 20000 cells/well on white-walled microplates (PerkinElmer) and incubated at 37°C, 5% CO2 and 95% humidity. After culturing the cells overnight, the medium was replaced with the assay media (5% FBS) containing the sample and the cells were incubated for 24 h. Polymyxin B sulphate (15000 IU/mL) was used as a positive control. Following the incubation period, Promega’s CellTiter-Glo Cell Viability Assay was used to determine the intracellular ATP levels according to the manufacturer’s instructions. Cells were washed with 100 µL 6.7 mM PBS, pH 7.4 and 50 µL of fresh assay media and 50 µL of the CellTiter-Glo reagent were added into the wells. After 2 min shaking, followed by 10 min incubation at RT, luminometric signal was measured using Varioskan Flash plate reader (Thermo Fisher Scientific).

[5] = tested on: C. albicans ATCC 90028; experiment: Broth microdilution assay, C. albicans; assay type: cell-based, Candida albicans; settings: 50 µM, 48 h at 35°C, inhibition of growth, mean ± SD
Procedure: as §1, §2, §3

[6] = tested on: E. aerogenes ATCC 13048; experiment: Broth microdilution assay, E. aerogenes; assay type: cell-based, Enterobacter aerogenes; settings: 50 µM, 24 h, inhibition of growth, mean ± SD
Procedure: as §1, §2, §3

[7] = tested on: S. aureus ATCC 25923; experiment: Broth microdilution assay, S. aureus; assay type: cell-based, Staphylococcus aureus; settings: 50 µM, 24 h, inhibition of growth, mean ± SD
Procedure: as §1, §2, §3

SMILES | Inhibitory effect (%) P. aeruginosa ATCC 27853 [1] [%] | Inhibitory effect (%) E. coli ATCC 25922 [2] [%] | Inhibitory effect (%) E. faecalis ATCC 29212 [3] | Cytotoxicity (%) Huh-7 cells [4] [%] | Inhibitory effect (%) C. albicans ATCC 90028 [5] [%] | Inhibitory effect (%) E. aerogenes ATCC 13048 [6] | Inhibitory effect (%) S. aureus ATCC 25923 [7] [%]
C=C(C)[C@@H]1CC[C@]2(COC(=O)c3cccnc3)CC[C@]3(C)[C@H](CC[C@@H]4[C@@]5(C)CC[C@H](O)C(C)(C)[C@@H]5CC[C@]43C)[C@@H]12 [Compound 6, 28-O-nicotinoylbetulin] | 2.2±2.2 | -0.6±6.8 | 60.1±4.0% | -0.4±3.4 | 36.7±7.6 | 7.5±1.3% | -17.7±2.0
CC(C)C(=O)OCC12CCC3(C(C)C)C1=C1C(CC4C5(C)CCC(OC(=O)C(C)C)C(C)(C)C5CCC4(C)C1(C)CC2)n1c(=O)n(C)c(=O)n13 (stereo not shown) [Compound 47] | 1.4±0.8 | -3.8±4.2 | 47.8±1.3% | -4.9±2.2 | 12.0±12.7 | 9.6±1.7% | 2.9±1.0
C=C(C)[C@@H]1CC[C@]2(C(=O)OC)CC[C@]3(C)[C@H](CC[C@@H]4[C@@]5(C)CC[C@H](O)C(C)(C)[C@@H]5CC[C@]43C)[C@@H]12 [Compound 20, betulinic acid methyl ester] | 8.6±2.5 | 13.5±8.9 | 51% and 51.1±0.6% | 33.7±7.0 | 34.3±5.6 | 39% and 38.9±1.5% | 5.3±4.2
CCC(=O)OCC12CCC3(C(C)C)C1=C1C(CC4C5(C)CCC(OC(=O)CC)C(C)(C)C5CCC4(C)C1(C)CC2)n1c(=O)n(C)c(=O)n13 (stereo not shown) [Compound 45] | 3.7±1.2 | -4.3±7.0 | 41.6±2.8% | 11.1±5.1 | -30.7±19.4 | 10.8±6.9% | 0.7±3.8
C=C(C)[C@@H]1CC[C@]2(C#N)CC[C@]3(C)[C@H](CC[C@@H]4[C@@]5(C)CCC(=NOC(C)=O)C(C)(C)[C@@H]5CC[C@]43C)[C@@H]12 [Compound 32] | 5.7±1.7 | 5.5±1.5 | 57% and 56.6±7.0% | -7.2±3.0 | -43.8±12.6 | 12.0±3.0% | 5.5±1.9
CC(C)C12CCC3(CO)CCC4(C)C(=C31)C(CC1C3(C)CCC(O)C(C)(C)C3CCC14C)n1c(=O)n(-c3ccccc3)c(=O)n12 (stereo not shown) [Compound 44] | 3.3±1.1 | -1.0±0.3 | 57.1±7.1% | 2.8±5.3 | -25.4±8.0 | 11.7±1.1% | 5.7±2.2
CC(C)C12CCC3(COC(=O)c4ccccc4)CCC4(C)C(=C31)C(CC1C3(C)CCC(OC(=O)c5ccccc5)C(C)(C)C3CCC14C)n1c(=O)n(C)c(=O)n12 (stereo not shown) [Compound 49] | 5.3±1.9 | 0.0±6.0 | 64.6±0.8% | -10.6±4.1 | -48.0±24.5 | 14.2±1.5% | 15.1±1.0
CC(=O)OCC12CCC3(C(C)C)C1=C1C(CC4C5(C)CCC(OC(C)=O)C(C)(C)C5CCC4(C)C1(C)CC2)n1c(=O)n(Cc2ccccc2)c(=O)n13 (stereo not shown) [Compound 40] | 1.7±0.6 | -0.8±2.3 | 66.0±1.5% | 2.3±2.2 | 4.4±10.5 | 15.1±3.4% | 4.1±1.1
CC(C)C12CCC3(COC(=O)C4CCCCC4)CCC4(C)C(=C31)C(CC1C3(C)CCC(OC(=O)C5CCCCC5)C(C)(C)C3CCC14C)n1c(=O)n(C)c(=O)n12 (stereo not shown) [Compound 48] | 7.1±1.7 | -5.5±1.9 | 56.3±1.8% | -10.8±1.9 | -39.6±25.9 | 12.1±2.2% | 5.0±4.2
C=C(C)[C@@H]1CC[C@]2(C#N)CC[C@]3(C)[C@H](CC[C@@H]4[C@@]5(C)CC[C@H](OC(C)=O)C(C)(C)[C@@H]5CC[C@]43C)[C@@H]12 [Compound 33] | 3.6±3.9 | -4.6±3.3 | 49% and 49.2±2.2% | 21.6±17.0 | -51.2±39.1 | 11.4±4.2% | 20.5±52.1
CC(=O)OCC12CCC3(C(C)C)C1=C1C(CC4C5(C)CCC(OC(C)=O)C(C)(C)C5CCC4(C)C1(C)CC2)n1c(=O)n(-c2cccc(Cl)c2)c(=O)n13 (stereo not shown) [Compound 39] | 2.6±1.1 | 4.4±2.7 | 69.1±4.9% | 1.5±2.7 | 4.8±13.6 | 19.0±1.9% | 5.7±0.8
C=C(C)[C@@H]1CC[C@]2(C=NO)CC[C@]3(C)[C@H](CC[C@@H]4[C@@]5(C)CCC(=NO)C(C)(C)[C@@H]5CC[C@]43C)[C@@H]12 [Compound 30] | 1.4±1.1 | 7.9±6.1 | 57% and 56.9±2.6% | 42.4±5.4 | 13.9±8.8 | 18.5±3.4% | 5.1±6.0
CC(=O)OCC12CCC3(C(C)C)C1=C1C(CC4C5(C)CCC(OC(C)=O)C(C)(C)C5CCC4(C)C1(C)CC2)n1c(=O)n(-c2ccc4c(c2)CCC4)c(=O)n13 (stereo not shown) [Compound 36] | 5.8±0.7 | 2.6±2.1 | 62.0±1.9% | 7.9±2.2 | 10.7±4.8 | 14.5±1.3% | 6.1±1.7
